ChEMBL document CHEMBL3507680, “University of Dundee, Gates Library screen for HepG2 cell viability”

Assay: Human HepG2 cell viability assay in 384 well format
Type: toxicity, cell-based
Parameters: dose 125 nL, time 70.5 hour; concentration not given beside the values
Settings: HepG2 cells, read-out: Inhibition

| Compound | cytotoxicity at 70.5 h [%] |
| --- | --- |
| COc1cc2nc3n(c(=O)c2cc1OC)CCN(C)CC3 | 3.41 |
| O=C(NCCCOCC1CC1)Nc1ccc(-n2cncn2)c(F)c1 | -13.3 |
| CC1=N[C@@]2(CC[C@@H]3CN(C(=O)NC(C)C)C[C@@H]32)C(=O)N1CC(C)C | -3.41 |
| CN(C)C(=O)C1CN(Cc2ccsc2)Cc2ccnn2C1 (stereo unspecified) | 12.7 |
| CCn1cnnc1C1CCN(C(=O)COc2ccccc2OC)CC1 | 6.54 |
| Cc1nc(C)n(C2CCCN(C(=O)c3csc(C(C)C)n3)C2)n1 (stereo unspecified) | 23.9 |
| Cc1cc(NCCN)nc2ccccc12 | -11.3 |
| Cc1nccn1CCN(C)C(=O)C1CCN(C(=O)C2CCCC2)CC1 | 8.88 |
| CCN(C(=O)C(C)S(=O)(=O)Cc1nc(C)no1)c1ccccc1 (stereo unspecified) | -96.7 |
| COCc1ncn2c1CN(C(=O)C1CC=CC1)CC2 | -8.8 |
| Cc1nccn1-c1cncc(C2CCCN2Cc2cccnc2)n1 (stereo unspecified) | 19.3 |
| c1cncc(CNc2cccc(OCCN3CCCCC3)c2)c1 | -11.5 |
| CC(C)C(C(=O)NCC1CC1)n1cnc2cc(F)c(F)cc21 (stereo unspecified) | -1.42 |
| CCCN(C(=O)c1cccnc1)c1nc2c(s1)CCc1c-2cnn1C | 21 |
| COc1ccc(NC(=O)N(CCO)Cc2ccsc2)c(OC)c1 | 0.461 |
| CC(C)c1ncc2c(n1)CN(Cc1noc(-c3ccccc3)n1)CC2 | 0.861 |
| CN1CCN(C[C@@H]2CN(C3Cc4ccccc4C3)C[C@@H]2CO)CC1 | 22.1 |
| CN1CC(=O)N(c2ccsc2)CC12CCN(Cc1nccn1C)C2 (stereo unspecified) | -0.505 |
| CCc1noc(C(C)N(C)CC(=O)Nc2cccc(C)c2C)n1 (stereo unspecified) | 20.2 |

| Compound | cytotoxicity at 70.5 h [%] |
| --- | --- |
| CC(CNC(=O)c1ccc(Cl)cc1F)N1CCN(C)CC1 (stereo unspecified) | 13.3 |
| Cc1ccc(C)c(Sc2nccn(C)c2=O)c1 | -10.6 |
| Cc1ccc(CN(Cc2ncc[nH]2)C2CC(C)(C)NC(C)(C)C2)o1 | 9.13 |
| Cc1ccccc1N1CC2(CCCCN2CC2CC2)CC1=O (stereo unspecified) | -3.78 |
| COc1ccccc1CCNC(=O)C1CCC(Cn2cnnn2)CC1 (stereo unspecified) | -18.1 |
| COCC(C)NC(=O)c1cn(C(C)(C)C)c2ncccc12 (stereo unspecified) | -6.59 |
| Cc1cccc(CN2CCCC3(CCN(CC(=O)N(C)C)C3=O)C2)n1 (stereo unspecified) | -13.1 |
| CCC1CCC(NCCN2CCOCC2)CC1 (stereo unspecified) | -6.57 |
| Cc1ccc(C2CC(=O)NCc3nc(N)sc32)cc1C (stereo unspecified) | -5.03 |
| Cc1ccc(S(=O)(=O)NCCc2cccnc2)cc1C | -3.85 |
| COc1ccc(COCC(=O)NC2CCc3nc(C)cn3C2)cc1 (stereo unspecified) | -2.95 |
| COCCSCC(=O)NCc1ccc(N(C)C)nc1 | -4.15 |
| O=C1NCC2CN(Cc3ccccc3OCc3ccccn3)CCN12 (stereo unspecified) | -13.1 |
| CC(=O)N(C)Cc1nn(C)c2c1CN(Cc1ccsc1)C2 | -6.65 |
| CCN1C[C@@H]2CN(C(=O)c3cccn3C)C[C@@H]2C1=O | 8.28 |
| Cc1cc(N(C)C)nc(NC2CCc3nc(C)nn3C2)n1 (stereo unspecified) | 6.17 |
| CCOc1cc(C)nc(N2CCN(C(=O)c3ccncc3)CC2)n1 | 5.92 |
| CC(=O)N1CCCC(c2ccc(Br)cn2)C1 (stereo unspecified) | -6.22 |
| CC1(C)CN(Cc2c[nH]c(CC3CCCC3)n2)CC[C@]1(C)O | -5.46 |

| Compound | cytotoxicity at 70.5 h [%] |
| --- | --- |
| Cc1nc(-c2cccs2)ccc1C(=O)N1CCN(CC(C)O)CC1 (stereo unspecified) | -2.84 |
| Cc1ncn(CCNC(=O)Nc2ccccc2)c(=O)c1C | 21.4 |
| CCc1ccccc1C(=O)N1CCN(S(C)(=O)=O)[C@@H](C)C1 | -9.19 |
| COC(=O)c1ccc(C(=O)N2CCC(c3nnc(C)s3)CC2)cc1 | -10.2 |
| Cc1cccc(C(=O)N2CCO[C@H]3[C@H](OCCN(C)C)CC[C@@H]32)n1 | -3.76 |
| CC(C)C[C@H](NCc1cc(O)c2cccc(F)c2n1)C(N)=O | -11.8 |
| Cn1ccnc1CN1CCC(Cn2cc(-c3ccccc3)nn2)CC1 | 3.07 |
| COc1ccc(CNC(=O)NCC2CCOC2)c(C(F)(F)F)c1 (stereo unspecified) | -2.53 |
| Cc1oc(-c2ccoc2)nc1CN1CCCCC1CCc1ccccc1 (stereo unspecified) | -2.03 |
| Cn1cccc1C(=O)N1CC[C@H]2[C@H]1CCN2CC1CC1 | -0.69 |
| Cc1ccc(CN(CCCn2ccnc2)Cc2[nH]cnc2C)s1 | 2.51 |
| Cc1cc(NC(=O)Cn2nc(C)c(C#N)c2N)ccc1Br | -7.3 |
| O=C(c1ccco1)N1CCc2ncnc(NCc3ccccn3)c2CC1 | -8.48 |
| CC(C)[C@@H]1CN(Cc2ccccn2)C[C@H]1NS(=O)(=O)N(C)C | -0.239 |
| CCc1nc(CN2CCCN(C(=O)C3CCC3)CC2)cs1 | 5.44 |
| O=C(c1ccc2sccc2c1)N1CCC(C(=O)O)(n2cccn2)CC1 | -6.51 |
| O=C(NCc1ccco1)[C@@H]1CCO[C@@H]2CCN(c3ccncn3)C[C@H]21 | -2.41 |
| COc1ccc(Oc2ncccc2NC(=O)N2CCOC(C)C2)cc1 (stereo unspecified) | -5.19 |
